From publication PMC9234961 (Journal of Medicinal Chemistry, 2022)

Experiments:
[1] = target: kinases (468) (Homo sapiens, UniProt P00533, G719S); conditions: EGFR(G719S); 1000 nM
[2] = target: kinases (468) (Homo sapiens, UniProt Q86YV6); conditions: MYLK4; 1000 nM
[3] = target: kinases (468) (Homo sapiens, UniProt Q04771); conditions: ACVR1; 1000 nM
[4] = target: kinases (468) (Homo sapiens, UniProt O14965); conditions: AURKA; 1000 nM
[5] = target: kinases (468) (Homo sapiens, UniProt Q2M2I8); conditions: AAK1; 1000 nM
[6] = target: kinases (468) (Homo sapiens, UniProt P22455); conditions: FGFR4; 1000 nM
[7] = target: kinases (468) (Homo sapiens, UniProt Q8TDC3); conditions: BRSK1; 1000 nM
[8] = target: kinases (468) (Homo sapiens, UniProt P07949); conditions: RET; 1000 nM
[9] = target: kinases (468) (Homo sapiens, UniProt O75460); conditions: ERN1; 1000 nM
[10] = target: kinases (468) (Homo sapiens, UniProt P54762); conditions: EPHB1; 1000 nM
[11] = target: kinases (468) (Homo sapiens, UniProt Q92772); conditions: CDKL2; 1000 nM
[12] = target: kinases (468) (Homo sapiens, UniProt Q14289); conditions: PYK2 (PTK2B); 1000 nM
[13] = target: kinases (468) (Homo sapiens, UniProt P10721, A829P); conditions: KIT(A829P); 1000 nM
[14] = target: kinases (468) (Homo sapiens, UniProt Q9UBF8); conditions: PIK4CB (PI4KB); 1000 nM
[15] = target: kinases (468) (Homo sapiens, UniProt P49137); conditions: MAPKAPK2; 1000 nM
[16] = target: kinases (468) (Homo sapiens, UniProt Q86UX6); conditions: kinase YANK3 (Entrez STK32C); compound concentration 1000 nM
[17] = target: kinases (468) (Homo sapiens, UniProt Q8N568); conditions: DCAMKL2 (DCLK2); 1000 nM
[18] = target: kinases (468) (Homo sapiens, UniProt P42336, E545A); conditions: PIK3CA(E545A); 1000 nM
[19] = target: kinases (468) (Homo sapiens, UniProt P35590); conditions: kinase TIE1 (Entrez TIE1); compound concentration 1000 nM
[20] = target: kinases (468) (Homo sapiens, UniProt Q99755); conditions: PIP5K1A; 1000 nM
[21] = target: kinases (468) (Homo sapiens, UniProt Q13464); conditions: kinase ROCK1 (Entrez ROCK1); compound concentration 1000 nM
[22] = target: kinases (468) (Homo sapiens, UniProt P36888, K663Q); conditions: FLT3(K663Q); 1000 nM
[23] = target: kinases (468) (Homo sapiens, UniProt Q13705); conditions: ACVR2B; 1000 nM
[24] = target: kinases (468) (Homo sapiens, UniProt Q15746); conditions: MYLK; 1000 nM
[25] = target: kinases (468) (Homo sapiens, UniProt P00533, DEL752-759); conditions: EGFR(S752-I759del); 1000 nM
[26] = target: kinases (468) (Homo sapiens, UniProt Q02750); conditions: MEK1 (MAP2K1); 1000 nM
[27] = target: kinases (468) (Homo sapiens, UniProt P22607); conditions: FGFR3; 1000 nM
[28] = target: kinases (468) (Homo sapiens, UniProt P45984); conditions: JNK2 (MAPK9); 1000 nM
[29] = target: kinases (468) (Homo sapiens, UniProt Q96GD4); conditions: AURKB; 1000 nM
[30] = target: kinases (468) (Homo sapiens, UniProt Q15303); conditions: ERBB4; 1000 nM
[31] = target: kinases (468) (Homo sapiens, UniProt O95747); conditions: OSR1 (OXSR1); 1000 nM
[32] = target: kinases (468) (Homo sapiens, UniProt Q86Y07); conditions: kinase VRK2 (Entrez VRK2); compound concentration 1000 nM
[33] = target: kinases (468) (Homo sapiens, UniProt P19784); conditions: CSNK2A2; 1000 nM
[34] = target: kinases (468) (Homo sapiens, UniProt Q9Y3S1); conditions: kinase WNK2 (Entrez WNK2); compound concentration 1000 nM

Chain of kinases (468) (Homo sapiens, UniProt Q86UX6) (Q86UX6 whole entry): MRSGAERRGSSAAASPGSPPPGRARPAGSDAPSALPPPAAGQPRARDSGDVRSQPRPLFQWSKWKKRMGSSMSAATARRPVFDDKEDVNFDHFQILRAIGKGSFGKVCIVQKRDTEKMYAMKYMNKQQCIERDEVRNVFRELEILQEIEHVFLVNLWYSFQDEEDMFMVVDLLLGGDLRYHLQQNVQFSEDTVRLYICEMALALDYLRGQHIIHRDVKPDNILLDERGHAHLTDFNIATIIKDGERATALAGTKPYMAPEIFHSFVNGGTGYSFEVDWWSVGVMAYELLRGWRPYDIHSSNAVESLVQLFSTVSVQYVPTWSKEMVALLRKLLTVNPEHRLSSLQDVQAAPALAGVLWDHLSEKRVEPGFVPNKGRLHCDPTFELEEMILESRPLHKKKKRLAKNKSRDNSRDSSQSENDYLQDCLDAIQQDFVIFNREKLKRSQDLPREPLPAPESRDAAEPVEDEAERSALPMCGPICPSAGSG
Chain of kinases (468) (Homo sapiens, UniProt P54762) (P54762 18-984): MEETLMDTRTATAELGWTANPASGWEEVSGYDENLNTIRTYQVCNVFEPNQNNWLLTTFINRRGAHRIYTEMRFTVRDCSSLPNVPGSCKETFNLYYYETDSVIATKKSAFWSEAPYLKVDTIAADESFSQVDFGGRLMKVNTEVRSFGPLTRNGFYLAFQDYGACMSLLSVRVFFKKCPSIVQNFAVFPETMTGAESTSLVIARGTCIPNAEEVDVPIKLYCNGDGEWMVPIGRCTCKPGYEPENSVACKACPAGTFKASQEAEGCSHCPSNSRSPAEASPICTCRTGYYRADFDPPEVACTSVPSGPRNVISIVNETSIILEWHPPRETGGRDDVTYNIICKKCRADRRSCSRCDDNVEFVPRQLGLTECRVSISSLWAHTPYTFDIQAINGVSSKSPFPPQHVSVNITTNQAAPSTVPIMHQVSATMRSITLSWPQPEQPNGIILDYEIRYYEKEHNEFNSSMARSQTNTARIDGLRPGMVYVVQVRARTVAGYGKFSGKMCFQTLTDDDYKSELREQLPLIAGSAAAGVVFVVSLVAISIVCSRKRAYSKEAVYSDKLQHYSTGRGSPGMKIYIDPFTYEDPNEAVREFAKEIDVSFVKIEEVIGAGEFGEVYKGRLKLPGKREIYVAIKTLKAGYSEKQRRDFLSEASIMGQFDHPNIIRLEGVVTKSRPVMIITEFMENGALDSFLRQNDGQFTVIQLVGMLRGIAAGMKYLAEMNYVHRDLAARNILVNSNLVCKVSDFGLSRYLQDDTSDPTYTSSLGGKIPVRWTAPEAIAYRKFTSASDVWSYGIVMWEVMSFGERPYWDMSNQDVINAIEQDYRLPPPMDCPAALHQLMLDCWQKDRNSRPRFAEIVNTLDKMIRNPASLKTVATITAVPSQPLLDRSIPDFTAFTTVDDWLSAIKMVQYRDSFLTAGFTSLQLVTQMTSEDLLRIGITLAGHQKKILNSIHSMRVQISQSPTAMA
Chain of kinases (468) (Homo sapiens, UniProt O75460) (O75460 19-977): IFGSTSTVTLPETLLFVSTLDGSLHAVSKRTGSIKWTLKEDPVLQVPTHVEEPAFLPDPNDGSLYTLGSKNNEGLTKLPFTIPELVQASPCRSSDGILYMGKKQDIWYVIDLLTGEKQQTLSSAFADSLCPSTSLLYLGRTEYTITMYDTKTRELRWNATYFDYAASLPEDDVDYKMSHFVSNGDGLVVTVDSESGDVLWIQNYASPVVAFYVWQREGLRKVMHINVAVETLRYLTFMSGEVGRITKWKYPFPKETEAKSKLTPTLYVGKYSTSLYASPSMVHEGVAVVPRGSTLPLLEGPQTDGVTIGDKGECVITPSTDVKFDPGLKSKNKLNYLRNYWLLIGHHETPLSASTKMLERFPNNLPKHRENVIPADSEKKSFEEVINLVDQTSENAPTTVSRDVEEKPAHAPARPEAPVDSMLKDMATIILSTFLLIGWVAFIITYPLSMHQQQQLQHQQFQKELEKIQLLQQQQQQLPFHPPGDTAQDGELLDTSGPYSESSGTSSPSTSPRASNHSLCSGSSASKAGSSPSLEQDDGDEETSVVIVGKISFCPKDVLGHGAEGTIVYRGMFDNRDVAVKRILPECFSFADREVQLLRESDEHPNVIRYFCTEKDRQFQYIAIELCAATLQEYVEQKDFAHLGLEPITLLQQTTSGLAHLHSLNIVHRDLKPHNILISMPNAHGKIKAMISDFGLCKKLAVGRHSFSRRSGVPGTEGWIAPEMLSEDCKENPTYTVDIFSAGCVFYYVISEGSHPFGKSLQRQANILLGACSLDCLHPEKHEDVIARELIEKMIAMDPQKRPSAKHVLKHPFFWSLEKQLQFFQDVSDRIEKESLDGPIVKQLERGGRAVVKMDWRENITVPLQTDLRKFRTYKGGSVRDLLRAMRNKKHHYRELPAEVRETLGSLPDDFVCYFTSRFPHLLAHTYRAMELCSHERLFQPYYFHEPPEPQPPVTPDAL
Chain of kinases (468) (Homo sapiens, UniProt P00533, G719S) (P00533 25-1210 G719S, looked up): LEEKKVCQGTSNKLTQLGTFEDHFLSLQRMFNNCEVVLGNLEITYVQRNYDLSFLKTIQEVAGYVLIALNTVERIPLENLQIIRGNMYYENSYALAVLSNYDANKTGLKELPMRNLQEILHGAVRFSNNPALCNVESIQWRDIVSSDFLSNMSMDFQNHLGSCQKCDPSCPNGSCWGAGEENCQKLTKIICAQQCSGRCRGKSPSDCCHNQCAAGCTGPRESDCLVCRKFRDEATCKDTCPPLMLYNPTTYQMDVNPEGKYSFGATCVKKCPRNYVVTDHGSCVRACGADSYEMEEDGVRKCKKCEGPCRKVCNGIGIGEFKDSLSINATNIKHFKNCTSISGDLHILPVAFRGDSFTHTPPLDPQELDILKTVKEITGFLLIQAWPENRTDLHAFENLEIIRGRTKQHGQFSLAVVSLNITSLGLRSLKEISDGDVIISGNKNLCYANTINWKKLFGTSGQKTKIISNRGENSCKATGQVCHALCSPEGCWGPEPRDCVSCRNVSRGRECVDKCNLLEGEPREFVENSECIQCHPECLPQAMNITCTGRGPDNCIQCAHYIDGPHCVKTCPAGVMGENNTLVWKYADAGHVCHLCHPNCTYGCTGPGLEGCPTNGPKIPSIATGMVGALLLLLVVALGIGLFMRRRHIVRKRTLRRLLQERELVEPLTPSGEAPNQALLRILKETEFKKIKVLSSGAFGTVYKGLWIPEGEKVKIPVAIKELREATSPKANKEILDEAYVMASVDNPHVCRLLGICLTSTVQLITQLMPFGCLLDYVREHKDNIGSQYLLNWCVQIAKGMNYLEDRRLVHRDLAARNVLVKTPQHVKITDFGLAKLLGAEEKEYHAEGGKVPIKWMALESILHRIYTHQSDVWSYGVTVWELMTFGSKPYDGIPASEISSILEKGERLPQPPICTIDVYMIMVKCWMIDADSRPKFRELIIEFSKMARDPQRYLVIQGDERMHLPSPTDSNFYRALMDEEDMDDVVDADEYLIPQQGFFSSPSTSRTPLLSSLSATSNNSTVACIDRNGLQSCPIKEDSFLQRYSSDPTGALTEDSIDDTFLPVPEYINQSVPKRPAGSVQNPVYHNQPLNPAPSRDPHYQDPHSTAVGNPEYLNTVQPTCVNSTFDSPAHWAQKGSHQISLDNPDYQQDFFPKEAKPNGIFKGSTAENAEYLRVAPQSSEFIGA
Chain of kinases (468) (Homo sapiens, UniProt P45984) (P45984 whole entry): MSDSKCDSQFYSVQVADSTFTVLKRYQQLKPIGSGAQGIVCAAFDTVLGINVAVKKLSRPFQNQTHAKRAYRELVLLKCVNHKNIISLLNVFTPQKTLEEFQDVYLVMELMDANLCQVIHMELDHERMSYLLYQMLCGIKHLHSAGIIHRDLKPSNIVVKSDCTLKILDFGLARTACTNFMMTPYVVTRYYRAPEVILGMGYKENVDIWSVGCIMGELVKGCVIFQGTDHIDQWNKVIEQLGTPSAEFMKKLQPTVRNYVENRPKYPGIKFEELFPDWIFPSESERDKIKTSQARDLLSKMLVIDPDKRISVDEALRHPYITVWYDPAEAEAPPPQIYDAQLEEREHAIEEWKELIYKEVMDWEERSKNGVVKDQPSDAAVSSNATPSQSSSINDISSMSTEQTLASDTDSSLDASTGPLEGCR
Chain of kinases (468) (Homo sapiens, UniProt O14965) (O14965 whole entry): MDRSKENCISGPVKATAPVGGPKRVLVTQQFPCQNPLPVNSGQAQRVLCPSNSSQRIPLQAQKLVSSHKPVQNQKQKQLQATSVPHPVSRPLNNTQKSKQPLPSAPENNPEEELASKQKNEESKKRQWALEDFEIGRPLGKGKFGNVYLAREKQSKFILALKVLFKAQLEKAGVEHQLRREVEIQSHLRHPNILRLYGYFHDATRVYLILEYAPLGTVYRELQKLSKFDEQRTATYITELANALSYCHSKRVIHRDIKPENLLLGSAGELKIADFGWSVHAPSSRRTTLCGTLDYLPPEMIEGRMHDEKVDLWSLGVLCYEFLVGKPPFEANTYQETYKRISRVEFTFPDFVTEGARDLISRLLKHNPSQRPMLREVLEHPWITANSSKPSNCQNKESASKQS
Chain of kinases (468) (Homo sapiens, UniProt Q99755) (Q99755 whole entry): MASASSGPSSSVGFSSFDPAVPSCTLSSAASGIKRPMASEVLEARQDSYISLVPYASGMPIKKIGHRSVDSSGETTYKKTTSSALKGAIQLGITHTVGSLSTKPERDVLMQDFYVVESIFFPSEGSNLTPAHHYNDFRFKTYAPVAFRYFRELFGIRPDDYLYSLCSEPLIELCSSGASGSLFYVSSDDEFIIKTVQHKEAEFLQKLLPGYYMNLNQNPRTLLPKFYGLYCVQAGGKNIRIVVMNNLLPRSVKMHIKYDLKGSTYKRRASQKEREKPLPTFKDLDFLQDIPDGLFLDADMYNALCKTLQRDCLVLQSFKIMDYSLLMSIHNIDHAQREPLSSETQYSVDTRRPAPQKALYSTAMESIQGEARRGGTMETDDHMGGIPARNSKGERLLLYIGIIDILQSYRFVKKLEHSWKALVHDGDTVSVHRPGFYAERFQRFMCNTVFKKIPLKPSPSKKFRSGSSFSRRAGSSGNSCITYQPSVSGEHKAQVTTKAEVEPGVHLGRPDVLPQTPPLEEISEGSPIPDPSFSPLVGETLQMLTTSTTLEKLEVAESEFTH

## C[C@H]1C[C@@H](O)CN(c2ncc(Cl)c(Nc3ccc4c(c3)c3c(c(=O)n4C)OCC(F)(F)[C@H](C4CC4)N3)n2)C1 [CCT373566_9A]
[1]
  Percent Control: 100%
[2]
  Percent Control: 100%
[3]
  Percent Control: 85%
[4]
  Percent Control: 100%
[5]
  Percent Control: 93%
[6]
  Percent Control: 100%
[7]
  Percent Control: 96%
[8]
  Percent Control: 99%
[9]
  Percent Control: 92%
[10]
  Percent Control: 99%
[11]
  Percent Control: 100%
[12]
  Percent Control: 98%
[13]
  Percent Control: 100%
[14]
  Percent Control: 94%
[15]
  Percent Control: 97%
[16]
  Percent Control: 100%
[17]
  Percent Control: 100%
[18]
  Percent Control: 100%
[19]
  Percent Control: 100%
[20]
  Percent Control: 77%
[21]
  Percent Control: 93%
[22]
  Percent Control: 97%
[23]
  Percent Control: 84%
[24]
  Percent Control: 91%
[25]
  Percent Control: 86%
[26]
  Percent Control: 90%
[27]
  Percent Control: 100%
[28]
  Percent Control: 78%
[29]
  Percent Control: 92%
[30]
  Percent Control: 99%
[31]
  Percent Control: 100%
[32]
  Percent Control: 89%
[33]
  Percent Control: 100%
[34]
  Percent Control: 100%
